Results: PMC9124651, “High-performance thin-layer chromatography in combination with an acetylcholinesterase-inhibition bioassay with pre-oxidation of organothiophosphates to determine neurotoxic effects in storm, waste, and surface water” (Analytical and Bioanalytical Chemistry, 2022)

Biological target: T1, AChE from electric eel (Electrophorus electricus) (Electrophorus electricus, UniProt O42275)
T1 construct: purchased Sigma-Aldrich GmbH (Steinheim, Germany)
Assay: HPTLC-(Ox)-AChE-I assay, immersion method (plates immersed in AChE solution)
Format: biochemical
Conditions: without oxidation; for IC10 (10% AChE inhibition), best fit / IC20 (20% AChE inhibition), best fit / IC50 (50% AChE inhibition), best fit / IC80 (80% AChE inhibition), best fit: OTPs 100 µL, oxons 10 µL applied, peak heights, n = 3
Method: LiChrospher 10 × 20 cm HPTLC Silica gel 60 F254s plates (Merck, Darmstadt, Germany) with a layer thickness of 170–190 µm and spherical silica particles with a size of 7 µm were used. The HPTLC plates were immersed twice in 2-propanol for 20 min, each time followed by a drying step at room temperature for 20 min. The plates then were pre-developed with methanol, dried for 20 min at room temperature, heated at 105 °C for 20 min, and stored in a desiccator for further use. The automatic TLC Sampler 4 (ATS 4, CAMAG AG, Muttenz, Switzerland) was used for sample application. The desired sample volumes were sprayed as 6-mm-wide bands onto the HPTLC plates with an application speed of 300 nL/s. The distances of the exterior bands from the edges of the plates were 15 mm. The distance from the bottom edge was 8 mm for all bands. Methanol was used as rinsing solvent. The following further application parameters were used: filling speed 15 µL/s, pre-dosage volume 200 nL, retraction volume 200 nL, rinsing vacuum time 4 s, filling vacuum time 0 s, rinsing cycles 2, and filling cycles 1. The development of the HPTLC plates was realized by the Automated Multiple Development 2 (AMD 2, CAMAG, Muttenz, Switzerland). The OTPs, their oxons, and environmental samples were separated with an eluent mixture of cyclohexane, dichloromethane, and acetone in different proportions and with increasing migration distances (Fig. S2). After each development step, a drying step of 3 min under vacuum followed. The final migration distance was 80 mm and the whole procedure took approximately 45 min. In addition, a simpler development process was used containing only the last step of the previous described method.
After chromatographic development, 10 mL of freshly prepared NBS (100 µg/mL) was sprayed onto the HPTLC plates with a glass reagent sprayer, followed by a 5-min incubation at room temperature. The following AChE-I assay was performed in parts according to Mendoza et al., Stütz et al., and Weins and Jork. AChE was buffered in TRIS/HCl at a pH of 7.8 (2.5 U/mL). The AChE solution was either sprayed onto the HPTLC plates with a glass reagent sprayer until the plates were evenly moist (approx. 10 mL) or the plates were immersed in the AChE solution using the Chromatogram Immersion Device 3 (CID 3, CAMAG, Muttenz, Switzerland). The immersion volume, speed, time, and depth were approx. 200 mL, 2.5 cm/s, 2 s, and approx. 85 mm, respectively. Afterward, the plates were placed separately in closed plastic boxes, which contained paper towels moistened with water to gain a saturated atmosphere. An incubation at 37 °C for 5 min followed. The substrate indoxyl acetate was freshly prepared in methanol at a concentration of 20 mg/mL and 5 mL was sprayed onto the HPTLC plates with a glass reagent sprayer. During 45-min incubation time at room temperature, AChE cleaves the substrate into indoxyl and acetate. The indoxyl reacts with oxygen to the blue indigo dye. When AChE was inhibited, no indigo was produced and the spot stayed white. The TLC Scanner 3 (CAMAG, Muttenz, Switzerland) was used to scan each track on the plates at 670 nm using the fluorescence mode without optical filter. The CAMAG-embedded software Wincats (Vers. 1.4.9) was used to provide chromatograms of each track and to evaluate inhibition zones.
Several amounts of an OTP mix and an oxon mix were applied on HPTLC plates (Tab. S2) and tested as described in the “Combination of HPTLC and AChE-inhibition assay” section. Three plates were used for each dilution series. The application volume was 10 µL for investigating OTPs with following oxidation and 100 µL for testing OTPs without following oxidation. The application volume for the oxons was 10 µL. They were tested without oxidation step also in triplicates. The peak heights were used for evaluation. Only peaks that have a signal-to-noise ratio ≥ 3 were considered in the evaluation. The height next to the respective peak defines the noise. […]

T1 sequence (O42275 24-633): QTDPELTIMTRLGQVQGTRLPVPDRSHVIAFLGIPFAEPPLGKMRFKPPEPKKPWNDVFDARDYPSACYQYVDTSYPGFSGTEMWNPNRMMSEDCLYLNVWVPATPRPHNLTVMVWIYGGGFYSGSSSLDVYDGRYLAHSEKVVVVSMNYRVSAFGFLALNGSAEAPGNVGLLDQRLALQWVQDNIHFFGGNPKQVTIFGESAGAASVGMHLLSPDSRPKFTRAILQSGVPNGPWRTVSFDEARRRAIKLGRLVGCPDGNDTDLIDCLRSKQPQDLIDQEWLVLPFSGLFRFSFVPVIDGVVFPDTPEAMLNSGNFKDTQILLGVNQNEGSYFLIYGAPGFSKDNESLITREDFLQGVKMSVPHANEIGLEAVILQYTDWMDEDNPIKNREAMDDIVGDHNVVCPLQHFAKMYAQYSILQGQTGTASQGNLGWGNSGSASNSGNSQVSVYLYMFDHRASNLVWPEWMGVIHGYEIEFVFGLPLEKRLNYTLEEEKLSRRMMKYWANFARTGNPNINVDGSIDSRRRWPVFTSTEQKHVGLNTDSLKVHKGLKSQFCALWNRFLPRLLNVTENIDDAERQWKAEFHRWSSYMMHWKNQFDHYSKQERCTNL

Row | Structure (SMILES) | LOD immersion method (first detected AChE-I peak with signal-to-noise ratio ≥ 3) [ng/spot] | IC10 (10% AChE inhibition), best fit [ng/spot] | IC20 (20% AChE inhibition), best fit [ng/spot] | IC50 (50% AChE inhibition), best fit [ng/spot] | IC80 (80% AChE inhibition), best fit [ng/spot]
1 | CCOP(=O)(OCC)Oc1nc(Cl)c(Cl)cc1Cl [Chlorpyrifos-oxon] | 0.25 | 0.32 | 0.57 | 1.5 | 4.0
2 | CCOC(=O)CC(SP(=O)(OC)OC)C(=O)OCC (stereo not shown) [Malaoxon, malaoxon] | 0.1 | 0.14 | 0.24 | 0.60 | 1.5
